Results reported in patent US5945404A, “21-Substituted steroid compound” (priority 1993, dated 1999).
Where two headings read alike, the source gives them in different places.

What was measured:
[1] = tested on: granuloma; test: Inhibitory Effects on Granuloma Growth (Paper Disk Method); format: in vivo, male Sprague-Dawley rats; settings: ointment 0.1%, 50 mg once a day, 7 days; for change in vivo at 0.1 %, 50 mg: Rattus norvegicus, topical, 168 h
Experimental: (§1) Ointment to be tested was prepared usign white soft paraffin as the base and containing dexamethasone at 0.1% concentration.
Groups of 5 male Sprague-Dawley rats each weighing 150-170 g were used. Under ether anesthesia, the dorsum of animals was closely clipped, and medianly incised. After each one pre-weighed paper disk (8-mm diameter, 1-mm thick, weighing about 30 mg; Toyo-Roshi filter paper) was inserted subcutaneously into both sides of the dorsal incision, the incision was sutured. In order to prevent bacterial infection, penicillin G potassium salt (2,000 units) per rat was intramascularly injected after the surgery. Base or ointment to be tested (50 mg each) was rubbed carefully into the skin over the paper disk inserted site, for 30 seconds once a day for the duration of 7 days. Rats were slipped plastic cangs on to prevent them from licking the drug applied sites. On the 8th day of the test, rats were sacrificed under ether anesthesia, and granulomas were carefully excised. Granulomas were dried at 40° C. for 24 h, and their dry weights were recorded.
Inhibitory effects of dexamethasone derivatives on the weight increase of granuloma of experimental animals as compared with those of control animals are shown as per cent of inhibition ov er the control in Table 1. Figures wihth asterisks in the table indicate signfiicant difference. The same will be applied to the following other tables.

[2] = Effects of 7-day Ointment Rubbing on Organ Weights; format: in vivo, male Sprague-Dawley rats; settings: Table 7, 7-day rubbing, 100 mg ointment once daily; for Leukocyte count: normal animal 0.0
Experimental: as §1
Groups of 5 male Sprague-Dawley rats each weighing 150-170 g were used. Under ether anesthesia, the dorsum of animals were closely clipped, and test drug (100 mg) was carefully rubbed in the clipped dorsal area for 30 seconds. Rats were slipped on plastic cang to prevent them from licking the drug-applied area. After the drug rubbing once daily for 7 days, on the 8th day rats were anesthetized with ether. Blood samples were collected, and thymus, spleen, and adrenal were excised and measured their wet weights. Furthermore, leukocyte number was counted with the blood samples collected. Results were expressed as the per cent of change of body weight on the 8th day as compared with that on the 1st day of rubbing. Similarly, the per cent of change in weights of thymus, spleen and adrenal on the 8th day as compared with that of the control animlas were shown.

[3] = tested on: croton oil-induced granuloma; test: Croton Oil-induced Granuloma (granuloma pouch); format: in vivo, male Sprague-Dawley rats; settings: Rattus norvegicus, 168 h, 7 days; for inhibition in vivo at 0.01 mg: 0.01 mg/rat; for inhibition in vivo at 0.1 mg: 0.1 mg/rat; for inhibition in vivo at 1 mg: 1.0 mg/rat
Experimental: Groups of 5 male Sprague-Dawley rats each weighing 160-180 g were used. Under ether anesthesia, the dorsum of animals was closely clipped, and air sac was formed by injecting air (20 ml) subcutaneously. Next day cotton seed oil containing 1% croton oil was injected into the air sac. Drugs to be tested were suspended in the cotton seed oil containing 1% croton oil, and administered. After 7 days, the blood was taken from the animal under ether anesthesia. Then, the granuloma pouch fluid (exudate) was collected, and the fluid volume was measured. The pouch wall formed around granuloma and thymus were also excised and weighed.

[4] = tested on: croton oil-induced ear edema; test: Inhibitory Effects on Croton oil-induced Ear Lobe Edema; format: in vivo, male ddY mice; settings: Table 5, ointment 20 mg, mouse ear lobe
Experimental: as §1
Groups of 10 male ddY mice each weighing about 25 g were used. Ointment to be tested (20 mg) was rubbed in the right-side ear lobe, and, 30 min later, a drop of 4 % croton oil dissolved in either was applied to it. Thirty minute after that treatment, mice were sacrificed. Ear lobes on both sides were punched out in the size of 5-mm diameter, and weighed. Results were expressed by calculating the per cent of weight change of the right edema ear as compared with that of the untreated left ear, and compared with that of the control.

[5] = read-out: Weight of granuloma, per cent of change of the controls, rat, paper disk
[6] = rat, paper disk, read-out: Weight of granuloma, per cent of change of the controls
[7] = read-out: Effects on granuloma weight, per cent of inhibition over the control
[8] = read-out: Effects on pouch fluid (exudate) volume, per cent of inhibition over the control

## C[C@@H]1C[C@H]2[C@@H]3CCC4=CC(=O)C=C[C@]4(C)[C@@]3(F)[C@@H](O)C[C@]2(C)[C@@]1(O)C(=O)CO[C@@H]1O[C@H](CO)[C@@H](O)[C@H](O)[C@H]1O [Compound 5β, glucosyldexamethasone]
[1]; [5]
  change in vivo at 0.1 %, 50 mg: -47.4 ± 2.9%
[2]
  Adrenal weight, per cent of change vs control animals: -49.6 ± 3.2 per cent
  Body weight, per cent of change on the 8th day vs 1st day: 0.7 ± 1.4 per cent
  Spleen weight, per cent of change vs control animals: -56.0 ± 1.6 per cent
  Thymus weight, per cent of change vs control animals: -85.7 ± 2.6 per cent
  Leukocyte count: -46.6 ± 8.2

## Cc1ccc(C(=O)OC[C@H]2O[C@@H](OCC(=O)[C@@]3(O)[C@@H](C)C[C@H]4[C@@H]5C[C@H](F)C6=CC(=O)C=C[C@]6(C)[C@@]5(F)[C@@H](O)C[C@@]43C)[C@H](OC(=O)c3ccc(C)cc3)[C@@H](OC(=O)c3ccc(C)cc3)[C@@H]2OC(=O)c2ccc(C)cc2)cc1 [Compound 107β, glucosyldiflorasone (p-toluoyl derivative)]
[1]; [6]
  change in vivo at 0.1 %, 50 mg: -6.3 ± 5.5%
[3]; [7]
  inhibition in vivo at 0.01 mg: -21.2 ± 19.2%
  inhibition in vivo at 0.1 mg: -23.3 ± 21.4%
  inhibition in vivo at 1 mg: 28.1 ± 12.5%
[3]; [8]
  inhibition in vivo at 0.01 mg: -28.5 ± 18.8%
  inhibition in vivo at 0.1 mg: -30.9 ± 20.9%
  inhibition in vivo at 1 mg: 28.8 ± 15.2%

## CC(=O)OC[C@H]1O[C@H](OCC(=O)[C@@]2(O)[C@H](C)C[C@H]3[C@@H]4CCC5=CC(=O)C=C[C@]5(C)[C@@]4(F)[C@@H](O)C[C@@]32C)[C@@H](OC(C)=O)[C@@H](OC(C)=O)[C@@H]1OC(C)=O [Compound 29, mannosyldexamethasone (per Ac derivative)]
[1]; rat, paper disk
  Weight of granuloma, per cent of change of the controls: -35.7 ± 5.6 per cent
[4]
  Percent of inhibition of ear edema: 22.1 ± 4.7%

## CC(=O)OC1C(C)OC(OCC(=O)C2(O)C(C)CC3C4CCC5=CC(=O)C=CC5(C)C4(F)C(O)CC32C)C(OC(C)=O)C1OC(C)=O (stereo not drawn) [Compound 74β, fucosyldexamethasone]
[1]; rat, paper disk
  Weight of granuloma, per cent of change of the controls: 1.6 ± 16.2 per cent
[4]
  Percent of inhibition of ear edema: 14.1 ± 4.5%

## C[C@@H]1C[C@H]2[C@@H]3CCC4=CC(=O)C=C[C@]4(C)[C@@]3(F)[C@@H](O)C[C@]2(C)[C@@]1(O)C(=O)CO[C@@H]1O[C@H](CO)[C@H](O)[C@H](O)[C@H]1O [Compound 15β, galactosyldexamethasone]
[1]; [5]
  change in vivo at 0.1 %, 50 mg: -41 ± 2.6%
[2]
  Adrenal weight, per cent of change vs control animals: -47.1 ± 1.9 per cent
  Body weight, per cent of change on the 8th day vs 1st day: 4.6 ± 0.9 per cent
  Spleen weight, per cent of change vs control animals: -43.2 ± 2.1 per cent
  Thymus weight, per cent of change vs control animals: -86.0 ± 1.4 per cent
  Leukocyte count: -37.0 ± 6.9

## CC(=O)N[C@H]1[C@H](OCC(=O)[C@@]2(O)[C@H](C)C[C@H]3[C@@H]4CCC5=CC(=O)C=C[C@]5(C)[C@@]4(F)[C@@H](O)C[C@@]32C)O[C@H](CO)[C@@H](O)[C@@H]1O [Compound 35β, β-N-acetylglucosaminyldexamethasone]
[1]; [6]
  change in vivo at 0.1 %, 50 mg: -21.9 ± 4.2%

## COC(=O)[C@H]1O[C@@H](OCC(=O)[C@@]2(O)[C@H](C)C[C@H]3[C@@H]4CCC5=CC(=O)C=C[C@]5(C)[C@@]4(F)[C@@H](O)C[C@@]32C)[C@H](OC(C)=O)[C@@H](OC(C)=O)[C@@H]1OC(C)=O [Compound 54β]
[1]; [6]
  change in vivo at 0.1 %, 50 mg: -35.1 ± 2.8%

## COC(=O)[C@H]1O[C@@H](OCC(=O)[C@@]2(O)[C@H](C)C[C@H]3[C@@H]4CCC5=CC(=O)C=C[C@]5(C)[C@@]4(F)[C@@H](O)C[C@@]32C)[C@H](OC(=O)c2ccc(C)cc2)[C@@H](OC(=O)c2ccc(C)cc2)[C@H]1OC(=O)c1ccc(C)cc1 [Compound 69β]
[1]; [6]
  change in vivo at 0.1 %, 50 mg: 0.7 ± 2.4%

## CC(=O)N[C@H]1C(OCC(=O)[C@@]2(O)[C@H](C)C[C@H]3[C@@H]4CCC5=CC(=O)C=C[C@]5(C)[C@@]4(F)[C@@H](O)C[C@@]32C)O[C@H](CO)[C@H](O)[C@@H]1O (stereo partly shown) [Compound 45', N-acetylgalactosaminyldexamethasone]
[1]; rat, paper disk, listed as 45'
  Weight of granuloma, per cent of change of the controls: -11.8 ± 10.1 per cent
[4]; listed as 45'
  Percent of inhibition of ear edema: 21.0 ± 6.4%

## COC(=O)[C@H]1O[C@@H](OCC(=O)[C@@]2(O)[C@H](C)C[C@H]3[C@@H]4CCC5=CC(=O)C=C[C@]5(C)[C@@]4(F)[C@@H](O)C[C@@]32C)[C@H](OC(=O)c2ccc(C)cc2)[C@@H](OC(=O)c2ccc(C)cc2)[C@@H]1OC(=O)c1ccc(C)cc1 [Compound 59β]
[1]; [6]
  change in vivo at 0.1 %, 50 mg: -7.7 ± 6.8%

## Cc1ccc(C(=O)OC[C@H]2O[C@@H](OCC(=O)[C@@]3(O)CC[C@H]4[C@@H]5C[C@H](F)C6=CC(=O)C=C[C@]6(C)[C@@]5(F)[C@@H](O)C[C@@]43C)[C@H](OC(=O)c3ccc(C)cc3)[C@@H](OC(=O)c3ccc(C)cc3)[C@@H]2OC(=O)c2ccc(C)cc2)cc1 [Compound 105β, glucosyldiflupredonate (p-toluoyl derivative)]
[1]; [6]
  change in vivo at 0.1 %, 50 mg: -1.2 ± 5.7%
[3]; [7]
  inhibition in vivo at 0.01 mg: -5.9 ± 10.9%
  inhibition in vivo at 0.1 mg: 22.1 ± 3.7%
  inhibition in vivo at 1 mg: 53 ± 6.2%
[3]; [8]
  inhibition in vivo at 0.01 mg: -8.1 ± 9.4%
  inhibition in vivo at 0.1 mg: 24.8 ± 8.8%
  inhibition in vivo at 1 mg: 76.4 ± 4.3%

## C[C@@H]1C[C@H]2[C@@H]3CCC4=CC(=O)C=C[C@]4(C)[C@@]3(F)[C@@H](O)C[C@]2(C)[C@@]1(O)C(=O)CO[C@H]1O[C@H](CO)[C@@H](O)[C@H](O)[C@@H]1O [Compound 25α, mannosyldexamethasone]
[1]; [5]
  change in vivo at 0.1 %, 50 mg: -18 ± 4.8%
[2]
  Adrenal weight, per cent of change vs control animals: -24.4 ± 3.4 per cent
  Body weight, per cent of change on the 8th day vs 1st day: 16.1 ± 1.7 per cent
  Spleen weight, per cent of change vs control animals: -18.2 ± 2.2 per cent
  Thymus weight, per cent of change vs control animals: -32.6 ± 7.4 per cent
  Leukocyte count: -0.7 ± 9.0

## Cc1ccc(C(=O)OC[C@H]2O[C@H](OCC(=O)[C@@]3(O)[C@H](C)C[C@H]4[C@@H]5CCC6=CC(=O)C=C[C@]6(C)[C@@]5(F)[C@@H](O)C[C@@]43C)[C@@H](OC(=O)c3ccc(C)cc3)[C@@H](OC(=O)c3ccc(C)cc3)[C@@H]2OC(=O)c2ccc(C)cc2)cc1 [Compound 24α, mannosyldexamethasone]
[1]; [6]
  change in vivo at 0.1 %, 50 mg: -3.7 ± 4.5%

## Cc1ccc(C(=O)OC[C@H]2O[C@H](OCC(=O)[C@@]3(O)[C@H](C)C[C@H]4[C@@H]5CCC6=CC(=O)C=C[C@]6(C)[C@@]5(F)[C@@H](O)C[C@@]43C)[C@H](OC(=O)c3ccc(C)cc3)[C@@H](OC(=O)c3ccc(C)cc3)[C@@H]2OC(=O)c2ccc(C)cc2)cc1 [Compound 4α]
[1]; [6]
  change in vivo at 0.1 %, 50 mg: -0.6 ± 5.1%

## CC(=O)N[C@H]1[C@H](OCC(=O)[C@@]2(O)[C@H](C)C[C@H]3[C@@H]4CCC5=CC(=O)C=C[C@]5(C)[C@@]4(F)[C@@H](O)C[C@@]32C)O[C@H](COC(C)=O)[C@H](OC(C)=O)[C@@H]1OC(C)=O [Compound 44β]
[1]; [6]
  change in vivo at 0.1 %, 50 mg: -16.5 ± 3%

## COC(=O)[C@H]1O[C@@H]2OC(C)(OCC(=O)[C@@]3(O)[C@H](C)C[C@H]4[C@@H]5CCC6=CC(=O)C=C[C@]6(C)[C@@]5(F)[C@@H](O)C[C@@]43C)O[C@@H]2[C@@H](OC(C)=O)[C@H]1OC(C)=O (stereo partly shown) [Compound 64']
[1]; [6]
  change in vivo at 0.1 %, 50 mg: -41.3 ± 2.3%

## C[C@@H]1C[C@H]2[C@@H]3CCC4=CC(=O)C=C[C@]4(C)[C@@]3(F)[C@@H](O)C[C@]2(C)[C@@]1(O)C(=O)CO[C@H]1O[C@H](CO)[C@H](O)[C@H](O)[C@H]1O [Compound 15α, galactosyldexamethasone]
[1]; [5]
  change in vivo at 0.1 %, 50 mg: -39.5 ± 1.8%
[2]
  Adrenal weight, per cent of change vs control animals: -48.3 ± 2.9 per cent
  Body weight, per cent of change on the 8th day vs 1st day: 8.3 ± 1.0 per cent
  Spleen weight, per cent of change vs control animals: -35.7 ± 2.3 per cent
  Thymus weight, per cent of change vs control animals: -82.2 ± 3.3 per cent
  Leukocyte count: -22.6 ± 7.4
